In assay [1] the test system is TSLP mRNA levels in NHBE cells. Put plainly: TSLP mRNA real-time PCR (qPCR) in NHBE cells. Format: cell-based, human. The settings on record: for % Inhibition of mRNA at [4 μM] ± SD: NHBE donor #1, 6 h stimulation; for % Inhibition of mRNA: individual values, donor #1. On the set-up: TSLP mRNA upregulation (% versus control) / % Inhibition of mRNA: dose or concentration left out as unconfirmed. On the technique in general: Quantitative PCR measures a nucleic acid by following its amplification.

The target of the next assay is T1, BTK (Homo sapiens, UniProt Q06187).
T1 construct: purchased Eurofins Pharma Discovery Services (KinaseProfiler; Cerep BioPrint panel)
Put plainly: kinase selectivity panel. Format: biochemical. The conditions noted are these: read-out: percentage of control activity (POC), BTK. In outline:
(§1)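 Tested at 10 μM in duplicate within a panel of 125 representative kinases. For selected activities, IC50 values were then determined from 9 concentrations, each run in duplicate.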

A further assay concerns the target T2, CaMKI (Homo sapiens, UniProt Q14012).
T2 construct: purchased Eurofins Pharma Discovery Services (KinaseProfiler; Cerep BioPrint panel)
Kind of assay: kinase selectivity panel. Format: biochemical. The settings on record: read-out: percentage of control activity (POC), CaMKI. In outline:
as §1

The target of a further assay is T3, JNK3 (Homo sapiens, UniProt P53779).
T3 construct: purchased Eurofins Pharma Discovery Services (KinaseProfiler; Cerep BioPrint panel)
Kind of assay: kinase selectivity panel. In kind it is biochemical. The settings on record: read-out: percentage of control activity (POC), JNK3. Put shortly: as §1

A further assay deals with T4, Mer (Homo sapiens, UniProt Q12866).
T4 construct: purchased Eurofins Pharma Discovery Services (KinaseProfiler; Cerep BioPrint panel)
T4 sequence (Q12866 21-999): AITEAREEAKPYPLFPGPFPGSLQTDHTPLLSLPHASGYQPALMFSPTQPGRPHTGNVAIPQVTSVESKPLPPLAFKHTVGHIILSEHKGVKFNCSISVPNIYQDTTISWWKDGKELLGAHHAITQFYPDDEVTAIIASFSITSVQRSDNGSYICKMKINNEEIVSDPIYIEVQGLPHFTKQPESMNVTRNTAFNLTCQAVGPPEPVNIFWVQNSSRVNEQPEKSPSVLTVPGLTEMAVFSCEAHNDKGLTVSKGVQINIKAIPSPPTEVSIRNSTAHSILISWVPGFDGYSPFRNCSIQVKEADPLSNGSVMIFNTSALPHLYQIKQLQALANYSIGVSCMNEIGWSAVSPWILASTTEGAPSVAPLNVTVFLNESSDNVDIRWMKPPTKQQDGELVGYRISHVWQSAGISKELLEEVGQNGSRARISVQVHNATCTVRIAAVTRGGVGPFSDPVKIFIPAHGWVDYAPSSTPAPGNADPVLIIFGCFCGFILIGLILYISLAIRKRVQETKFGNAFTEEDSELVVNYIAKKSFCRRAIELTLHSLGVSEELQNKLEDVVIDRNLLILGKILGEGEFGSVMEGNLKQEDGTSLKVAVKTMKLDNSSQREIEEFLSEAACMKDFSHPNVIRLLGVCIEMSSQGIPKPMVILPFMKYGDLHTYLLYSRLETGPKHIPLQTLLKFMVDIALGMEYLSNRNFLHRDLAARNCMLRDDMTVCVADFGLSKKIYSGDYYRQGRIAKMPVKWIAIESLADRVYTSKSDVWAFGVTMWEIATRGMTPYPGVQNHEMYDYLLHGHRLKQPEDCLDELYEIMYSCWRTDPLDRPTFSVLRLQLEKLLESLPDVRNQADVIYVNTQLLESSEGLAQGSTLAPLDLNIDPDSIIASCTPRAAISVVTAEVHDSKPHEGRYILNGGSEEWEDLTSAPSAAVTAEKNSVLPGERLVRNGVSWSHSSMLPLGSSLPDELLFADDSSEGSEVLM
Put plainly: kinase selectivity panel. Format: biochemical. The conditions noted are these: read-out: percentage of control activity (POC), Mer. Put shortly:
as §1

Another assay deals with T5, PKCε (Homo sapiens, UniProt Q02156).
T5 construct: purchased Eurofins Pharma Discovery Services (KinaseProfiler; Cerep BioPrint panel)
T5 sequence (Q02156 1-737): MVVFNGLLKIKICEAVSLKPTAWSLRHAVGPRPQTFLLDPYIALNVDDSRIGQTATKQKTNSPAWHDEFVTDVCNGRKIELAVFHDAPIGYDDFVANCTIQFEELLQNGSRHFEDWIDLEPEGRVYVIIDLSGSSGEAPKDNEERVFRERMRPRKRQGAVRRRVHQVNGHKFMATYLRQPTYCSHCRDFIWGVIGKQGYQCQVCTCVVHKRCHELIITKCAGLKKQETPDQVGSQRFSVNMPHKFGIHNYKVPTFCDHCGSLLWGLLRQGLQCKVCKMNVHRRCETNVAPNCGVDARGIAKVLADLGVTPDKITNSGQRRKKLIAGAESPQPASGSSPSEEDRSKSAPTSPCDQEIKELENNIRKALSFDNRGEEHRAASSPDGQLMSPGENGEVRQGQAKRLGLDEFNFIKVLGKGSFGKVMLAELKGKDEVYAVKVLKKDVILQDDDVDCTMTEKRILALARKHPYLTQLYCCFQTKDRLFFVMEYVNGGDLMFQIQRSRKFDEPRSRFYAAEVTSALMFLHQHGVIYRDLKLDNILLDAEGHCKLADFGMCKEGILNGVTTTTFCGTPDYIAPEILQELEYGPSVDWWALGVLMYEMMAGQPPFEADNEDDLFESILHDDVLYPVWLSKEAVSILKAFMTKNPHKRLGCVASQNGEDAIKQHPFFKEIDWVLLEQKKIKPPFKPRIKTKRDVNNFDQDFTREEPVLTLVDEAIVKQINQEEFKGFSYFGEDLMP
Kind of assay: kinase selectivity panel. The conditions noted are these: read-out: percentage of control activity (POC), PKCε. Format: biochemical. Put shortly: as §1

A further assay deals with T6, ROCK-I (Homo sapiens, UniProt Q13464).
T6 construct: purchased Eurofins Pharma Discovery Services (KinaseProfiler; Cerep BioPrint panel)
Kind of assay: kinase selectivity panel. Format: biochemical. The settings on record: read-out: percentage of control activity (POC), ROCK-I. Put shortly:
as §1

In another assay the target is T7, ROCK-II (Homo sapiens, UniProt O75116).
T7 construct: purchased Eurofins Pharma Discovery Services (KinaseProfiler; Cerep BioPrint panel)
Kind of assay: kinase selectivity panel. The settings on record: read-out: percentage of control activity (POC), ROCK-II. Format: biochemical. In outline:
as §1

Another assay deals with T8, SRPK1 (Homo sapiens, UniProt Q96SB4).
T8 construct: purchased Eurofins Pharma Discovery Services (KinaseProfiler; Cerep BioPrint panel)
Put plainly: kinase selectivity panel. Format: biochemical. The conditions noted are these: read-out: percentage of control activity (POC), SRPK1. Put shortly:
as §1

In the next assay the target is T9, c-RAF (Homo sapiens, UniProt P04049).
T9 construct: purchased Eurofins Pharma Discovery Services (KinaseProfiler; Cerep BioPrint panel)
Kind of assay: kinase selectivity panel. The settings on record: read-out: percentage of control activity (POC), c-RAF. Format: biochemical. Put shortly:
as §1

A further assay concerns the target T10, cKit (Homo sapiens, UniProt P10721).
T10 construct: purchased Eurofins Pharma Discovery Services (KinaseProfiler; Cerep BioPrint panel)
Kind of assay: kinase selectivity panel. The conditions noted are these: read-out: percentage of control activity (POC), cKit. Format: biochemical. In outline:
as §1

A further assay addresses T11, acetylcholinesterase (Homo sapiens, UniProt P22303).
T11 construct: purchased Eurofins Pharma Discovery Services (KinaseProfiler; Cerep BioPrint panel)
Put plainly: BioPrint panel: acetylcholinesterase (h). In kind it is biochemical. The settings on record: 1 micromolar, read-out: percentage of inhibition of activity. An excerpt: (§2) Supplement pone.0189247.s004.xlsx, sheet "Bioprint Selectivity Panel" | column: %

Assay [2] relates to COMT (catechol- O-methyl transferase). Kind of assay: BioPrint panel: COMT (catechol- O-methyl transferase). The settings on record: 1 micromolar. In kind it is biochemical.
Source text: as §2

Assay [3] relates to 125 representative kinases. Put plainly: 125 kinase selectivity panel (overall). In kind it is biochemical. The settings on record: 10 μM. The method, then: Kinase selectivity was evaluated at Eurofins Pharma Discovery Services using a selection of 125 representative kinases tested at a concentration of 10 μM in duplicate (S3 Table). IC50 values for selected activities were further characterized at 9 duplicate concentrations. DNA-PK activity was determined at the SelectScreen® Biochemical kinase Profiling Service of Thermo Fisher Scientific.

Values joined by “and” are separate entries in the source; they are usually repeats but may differ in a detail not shown here. Equal values may be shown once.

By inhibition is commonly meant the drop in the measured response relative to a control, in per cent.

T9 sequence (P04049 whole entry): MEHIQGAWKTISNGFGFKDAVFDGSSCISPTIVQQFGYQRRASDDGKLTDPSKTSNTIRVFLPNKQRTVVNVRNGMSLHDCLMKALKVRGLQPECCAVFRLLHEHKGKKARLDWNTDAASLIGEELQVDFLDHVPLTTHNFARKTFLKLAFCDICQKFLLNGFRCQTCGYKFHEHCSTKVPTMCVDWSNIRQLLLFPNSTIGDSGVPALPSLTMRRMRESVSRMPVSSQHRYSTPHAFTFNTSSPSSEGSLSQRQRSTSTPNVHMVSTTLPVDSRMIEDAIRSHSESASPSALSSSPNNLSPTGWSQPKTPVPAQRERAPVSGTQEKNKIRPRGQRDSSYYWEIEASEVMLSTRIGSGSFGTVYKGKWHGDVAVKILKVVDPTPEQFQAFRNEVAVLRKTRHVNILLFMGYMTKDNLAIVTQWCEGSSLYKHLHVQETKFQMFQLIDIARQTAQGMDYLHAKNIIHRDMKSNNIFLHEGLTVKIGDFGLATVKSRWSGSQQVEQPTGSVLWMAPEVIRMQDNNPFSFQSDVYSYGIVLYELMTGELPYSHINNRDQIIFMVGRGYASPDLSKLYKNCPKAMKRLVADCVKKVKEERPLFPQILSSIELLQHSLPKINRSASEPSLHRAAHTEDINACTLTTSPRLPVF
T6 sequence (Q13464 whole entry): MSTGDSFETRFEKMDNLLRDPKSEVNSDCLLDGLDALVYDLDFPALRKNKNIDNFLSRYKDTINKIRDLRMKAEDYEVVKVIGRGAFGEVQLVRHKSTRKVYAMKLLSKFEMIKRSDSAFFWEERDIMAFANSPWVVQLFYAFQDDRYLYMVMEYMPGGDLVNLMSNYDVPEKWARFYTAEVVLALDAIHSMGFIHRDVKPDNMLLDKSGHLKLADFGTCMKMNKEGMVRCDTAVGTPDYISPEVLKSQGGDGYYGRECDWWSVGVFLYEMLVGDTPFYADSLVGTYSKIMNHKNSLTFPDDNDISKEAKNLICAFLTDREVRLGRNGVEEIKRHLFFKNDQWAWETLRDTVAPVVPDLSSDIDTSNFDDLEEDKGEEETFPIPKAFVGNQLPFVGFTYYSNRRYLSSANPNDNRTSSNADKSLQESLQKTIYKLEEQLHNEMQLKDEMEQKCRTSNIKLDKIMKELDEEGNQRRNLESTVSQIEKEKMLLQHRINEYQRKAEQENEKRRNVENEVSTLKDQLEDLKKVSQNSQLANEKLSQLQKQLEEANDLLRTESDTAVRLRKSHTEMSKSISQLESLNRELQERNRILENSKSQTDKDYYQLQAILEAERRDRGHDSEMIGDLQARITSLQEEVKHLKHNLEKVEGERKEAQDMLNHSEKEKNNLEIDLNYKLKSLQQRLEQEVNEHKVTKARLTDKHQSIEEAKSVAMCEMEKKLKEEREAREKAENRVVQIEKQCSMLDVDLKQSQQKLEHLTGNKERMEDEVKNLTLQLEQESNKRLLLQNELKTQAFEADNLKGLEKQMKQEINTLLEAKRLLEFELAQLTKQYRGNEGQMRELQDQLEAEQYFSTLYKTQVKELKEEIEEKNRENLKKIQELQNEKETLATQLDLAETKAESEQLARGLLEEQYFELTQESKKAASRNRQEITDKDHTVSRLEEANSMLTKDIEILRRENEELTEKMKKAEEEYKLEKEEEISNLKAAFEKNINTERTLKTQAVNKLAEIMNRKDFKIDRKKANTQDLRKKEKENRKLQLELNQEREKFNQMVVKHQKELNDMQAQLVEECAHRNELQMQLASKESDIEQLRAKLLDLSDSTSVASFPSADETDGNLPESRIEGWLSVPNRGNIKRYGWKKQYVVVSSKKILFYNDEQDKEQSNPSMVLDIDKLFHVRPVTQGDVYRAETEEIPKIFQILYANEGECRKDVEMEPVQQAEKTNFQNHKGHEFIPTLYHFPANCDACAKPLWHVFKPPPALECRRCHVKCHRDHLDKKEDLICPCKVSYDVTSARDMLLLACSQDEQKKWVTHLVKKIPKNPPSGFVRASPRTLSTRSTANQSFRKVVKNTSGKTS
T3 sequence (P53779 whole entry): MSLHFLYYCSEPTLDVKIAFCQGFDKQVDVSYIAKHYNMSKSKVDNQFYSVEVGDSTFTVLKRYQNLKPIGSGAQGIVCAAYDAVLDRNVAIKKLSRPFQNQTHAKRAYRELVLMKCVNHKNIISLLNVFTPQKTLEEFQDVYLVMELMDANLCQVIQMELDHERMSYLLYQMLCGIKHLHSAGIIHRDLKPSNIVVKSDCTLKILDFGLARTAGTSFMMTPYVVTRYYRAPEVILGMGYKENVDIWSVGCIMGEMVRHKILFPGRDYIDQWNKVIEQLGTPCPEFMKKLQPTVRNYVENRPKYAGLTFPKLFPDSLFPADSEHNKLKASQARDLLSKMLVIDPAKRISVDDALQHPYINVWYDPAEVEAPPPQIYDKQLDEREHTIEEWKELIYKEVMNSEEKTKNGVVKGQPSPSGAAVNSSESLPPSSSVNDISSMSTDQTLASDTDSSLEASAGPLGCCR
T7 sequence (O75116 whole entry): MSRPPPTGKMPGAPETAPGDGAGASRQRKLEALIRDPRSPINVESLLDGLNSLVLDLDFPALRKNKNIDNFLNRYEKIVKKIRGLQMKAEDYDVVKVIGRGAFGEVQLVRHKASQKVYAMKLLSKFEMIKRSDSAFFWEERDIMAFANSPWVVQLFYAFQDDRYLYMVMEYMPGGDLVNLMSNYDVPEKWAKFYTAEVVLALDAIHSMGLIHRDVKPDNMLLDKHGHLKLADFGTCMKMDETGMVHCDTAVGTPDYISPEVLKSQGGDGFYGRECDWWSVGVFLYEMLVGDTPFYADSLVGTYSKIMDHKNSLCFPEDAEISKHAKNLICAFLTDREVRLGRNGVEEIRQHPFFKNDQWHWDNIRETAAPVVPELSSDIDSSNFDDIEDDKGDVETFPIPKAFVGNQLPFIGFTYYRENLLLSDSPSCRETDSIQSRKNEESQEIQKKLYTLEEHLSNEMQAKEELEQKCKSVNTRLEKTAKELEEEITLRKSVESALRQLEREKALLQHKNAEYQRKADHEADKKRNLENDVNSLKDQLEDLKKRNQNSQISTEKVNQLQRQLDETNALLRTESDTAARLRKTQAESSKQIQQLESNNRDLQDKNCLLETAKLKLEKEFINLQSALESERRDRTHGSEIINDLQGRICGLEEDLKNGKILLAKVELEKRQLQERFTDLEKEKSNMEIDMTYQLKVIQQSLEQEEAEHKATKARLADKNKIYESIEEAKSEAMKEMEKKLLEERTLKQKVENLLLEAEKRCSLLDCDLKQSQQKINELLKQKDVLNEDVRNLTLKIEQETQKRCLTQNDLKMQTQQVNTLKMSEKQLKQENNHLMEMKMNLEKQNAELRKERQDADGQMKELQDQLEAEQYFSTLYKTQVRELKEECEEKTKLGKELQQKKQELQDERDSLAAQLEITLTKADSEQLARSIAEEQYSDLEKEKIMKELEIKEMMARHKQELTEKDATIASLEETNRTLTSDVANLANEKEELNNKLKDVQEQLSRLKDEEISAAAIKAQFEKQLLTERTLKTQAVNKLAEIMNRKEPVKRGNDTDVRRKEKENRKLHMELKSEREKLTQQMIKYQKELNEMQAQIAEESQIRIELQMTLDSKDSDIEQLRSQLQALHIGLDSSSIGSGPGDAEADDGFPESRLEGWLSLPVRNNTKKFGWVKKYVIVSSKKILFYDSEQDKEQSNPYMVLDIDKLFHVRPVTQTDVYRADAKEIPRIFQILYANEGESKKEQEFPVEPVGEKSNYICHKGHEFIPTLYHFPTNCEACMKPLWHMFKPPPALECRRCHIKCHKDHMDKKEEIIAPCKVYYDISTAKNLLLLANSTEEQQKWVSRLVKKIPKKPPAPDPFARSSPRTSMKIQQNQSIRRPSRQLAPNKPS
T8 sequence (Q96SB4 whole entry): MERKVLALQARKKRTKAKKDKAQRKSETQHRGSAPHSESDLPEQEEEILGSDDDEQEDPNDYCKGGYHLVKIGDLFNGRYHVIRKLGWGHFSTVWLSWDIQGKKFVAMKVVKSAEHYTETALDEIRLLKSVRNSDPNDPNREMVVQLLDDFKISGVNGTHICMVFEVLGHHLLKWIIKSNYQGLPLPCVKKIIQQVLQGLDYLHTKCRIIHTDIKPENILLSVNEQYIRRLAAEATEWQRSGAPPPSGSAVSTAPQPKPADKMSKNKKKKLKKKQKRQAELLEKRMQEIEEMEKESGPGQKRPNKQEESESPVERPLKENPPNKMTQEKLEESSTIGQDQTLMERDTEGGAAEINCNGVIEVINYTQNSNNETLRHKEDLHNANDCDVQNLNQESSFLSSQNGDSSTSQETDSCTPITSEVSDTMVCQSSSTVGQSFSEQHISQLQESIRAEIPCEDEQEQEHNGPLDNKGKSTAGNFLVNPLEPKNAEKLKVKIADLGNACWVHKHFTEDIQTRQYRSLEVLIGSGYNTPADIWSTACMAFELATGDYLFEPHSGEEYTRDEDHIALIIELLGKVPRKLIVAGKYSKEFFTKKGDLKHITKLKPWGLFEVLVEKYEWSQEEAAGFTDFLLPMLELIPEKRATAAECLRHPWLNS
T2 sequence (Q14012 whole entry): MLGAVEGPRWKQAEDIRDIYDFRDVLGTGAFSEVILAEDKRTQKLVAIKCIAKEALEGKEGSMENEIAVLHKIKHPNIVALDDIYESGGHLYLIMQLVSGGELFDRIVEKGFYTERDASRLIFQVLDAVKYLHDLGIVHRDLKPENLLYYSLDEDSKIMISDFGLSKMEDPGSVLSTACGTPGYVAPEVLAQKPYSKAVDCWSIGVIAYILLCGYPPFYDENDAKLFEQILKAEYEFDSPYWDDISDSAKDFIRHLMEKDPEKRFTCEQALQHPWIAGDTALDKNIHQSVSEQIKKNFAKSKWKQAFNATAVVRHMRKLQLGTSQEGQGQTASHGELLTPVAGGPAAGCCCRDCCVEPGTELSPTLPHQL

Consider `Cn1cc(-c2cccc(-c3nc(C(=O)NC4C5CC6CC4CC(O)(C6)C5)c(N)nc3N)c2)cn1` (centres unmarked) [compound 4], for which, in assay [1], the “% Inhibition of mRNA at [4 μM] ± SD” value is 90.44 ± 0.24%. Also, the “% Inhibition of mRNA” value in [1] was 90.608% and 90.263%. Besides, the remaining activity at 10 µM at BTK came to 89%; on CaMKI, 87%; at JNK3, 72%; at Mer it was 74%; on PKCε it was 87%; on ROCK-I, 91%. The remaining activity at 10 µM at ROCK-II was found to be 85%; at SRPK1, 92%; at c-RAF, 52%; on cKit, 102%. Moreover, the inhibition at 1 µM on acetylcholinesterase was 6.2%. In addition, the “percentage of inhibition of activity” value in assay [2] is on record as “INTER”.

As to `COc1c(NC(=O)c2ccc(C)c(-c3nnc4c(NCC(C)(C)C)nccn34)c2)cc(C(C)(C)C)cc1NS(C)(=O)=O` [compound 7, reference compound], the remaining activity at 10 µM on BTK is 112%; on CaMKI it was 108%; on JNK3 it was 75%; at Mer, 100%; at PKCε it was 100%; on ROCK-I, 108%. Further, the remaining activity at 10 µM turned out to be 93% on ROCK-II, 100% on SRPK1, 61% on c-RAF and 92% on cKit.

For `Cc1ccc(C(=O)NCC2CC2)cc1-c1ccc2c(c1)NC(=O)C21CCCC1` [compound 3], in [1], the “% Inhibition of mRNA at [4 μM] ± SD” value turned out to be 80.07 ± 0.48%. Besides, in [1], the “% Inhibition of mRNA” value was 80.414% and 79.735%. Also, the “inhibition in the rest of the panel” value in assay [3] is recorded as “less than 50%”. For the same compound, the remaining activity at 10 µM at BTK was 98%; on CaMKI it was 95%; on JNK3 it was 65%; on Mer, 96%; at PKCε, 102%; on ROCK-I, 98%. Also, the remaining activity at 10 µM on ROCK-II was 96%; on SRPK1 it was 92%; at c-RAF, 54%; at cKit, 88%.

As to `CC(C)(C)N1CCC(c2cc(-c3ccc(F)cc3Cl)c3cc[n+]([O-])c(-c4c(Cl)cccc4Cl)c3n2)CC1` [compound 2], in assay [1], the “% Inhibition of mRNA at [4 μM] ± SD” value amounted to 79.69 ± 4.76%. Moreover, in assay [1], the “% Inhibition of mRNA” value was 83.056% and 76.316%. Moreover, in assay [3], the “inhibition in the rest of the panel” value is “less than 50%”. The remaining activity at 10 µM came out at 114% on BTK; 94% on CaMKI; 97% at JNK3; 95% on Mer; 94% on PKCε; 97% on ROCK-I. Also, the remaining activity at 10 µM on ROCK-II amounted to 100%; on SRPK1 it was 103%; at c-RAF, 112%; on cKit it was 96%.

Take `CS(=O)(=O)N1CCN(c2ccc(Nc3ncc(C(N)=O)c(NC4CC4)n3)cc2)CC1` [compound 5]: the “% Inhibition of mRNA at [4 μM] ± SD” value in [1] was found to be 99.76 ± 0.12%. Besides, the “% Inhibition of mRNA” value in assay [1] was 99.853% and 99.672%. The remaining activity at 10 µM on BTK is 17%; at CaMKI, 28%; on JNK3, -4%; on Mer, 1%; on PKCε it was 54%; at ROCK-I, 43%. The remaining activity at 10 µM on ROCK-II came out at 3%; at SRPK1 it was 83%; on c-RAF it was 10%; on cKit, 1%.

The values are drawn from PMC5761851, “Application of a phenotypic drug discovery strategy to identify biological and chemical starting points for inhibition of TSLP production in lung epithelial cells” (PLoS ONE, 2018).
